US5849587A, “Method of inhibiting viral replication in eukaryotic cells and of inducing apoptosis of virally-infected cells” (Cornell Research Foundation, Inc., priority 1995, dated 1998)

Experiments:
[1] = biological target: T1, Deoxyhypusyl hydroxylase (Homo sapiens, UniProt Q9BU89); test: Cellular deoxyhypusyl hydroxylase (hypusine formation) inhibition, human B-cells and human smooth muscle cells; format: cell-based; conditions: concentration for half-maximal inhibition
T1 construct: endogenous in cells
T1 sequence (Q9BU89 1-302): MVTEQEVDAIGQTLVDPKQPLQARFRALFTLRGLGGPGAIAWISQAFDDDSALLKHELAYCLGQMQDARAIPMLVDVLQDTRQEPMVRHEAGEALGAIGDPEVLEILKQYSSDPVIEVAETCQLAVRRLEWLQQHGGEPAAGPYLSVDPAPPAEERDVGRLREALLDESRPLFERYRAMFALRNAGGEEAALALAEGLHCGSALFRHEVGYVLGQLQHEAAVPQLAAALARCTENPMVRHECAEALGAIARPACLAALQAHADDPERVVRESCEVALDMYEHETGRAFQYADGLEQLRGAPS
Method: (§1) The cell-free enzyme assay was performed to test a pilot peptidomimetic which can be equipped with hydroxypyridone warheads. The cell culture studies were performed to establish the inherent inhibitory potency of such hydroxypyridones.
DOHH Assay. The intracellular conversion of peptide-bound deoxyhypusine to peptidyl hypusine was determined after preincubation of human T lymphocyte-derived cells (i.e. ACH-2) [Clouse et al., J. Immunol. 142, 431-438 (1989), which is hereby incorporated by reference] with the hypusine inhibitors mimosine and HK-1 for 60 minutes, followed by labeling for 21 hours with ^3 H-spermidine (3.75 μCi/ml) in wells containing 3×10^6 cells suspended in 8 ml of serum-supplemented and antibiotic-containing RPMI 1640 medium. Cells were then split into two groups, one of them being harvested immediately to assess degree of DOHH inhibition, and the other harvested after transfer of the cells into inhibitor-free medium for 2 hours to measure resumption of DOHH activity. Harvesting consisted in precipitation of washed cells with 10% TCA containing 1 mM each of putrescine, spermidine, and spermine. Cellular proteins from each sample were then hydrolyzed in 6N HCl at 110° C. for 16 hours. The hydrolysate was analyzed for labeled amino acids on an amino acid analyzer by published methods [Park et al., J. Biol. Chem., 257, 7217-7222 (1982), which is hereby incorporated by reference]. The retention times of hypusine and deoxyhypusine were determined from standards. Similar studies were performed in human B-cells and human smooth muscle cells.
The concentration required for half-maximal inhibition (ID50) of the cellular enzyme activity is identified for each compound.

[2] = system: deoxyhypusyl hydroxylase (DOHH); test: Cell-free DOHH assay with purified enzyme and unhydroxylated eIF-5A precursor; format: biochemical; conditions: purified rat enzyme, unhydroxylated eIF-5A, FIG. 4B
Method: The graph gives the chromatographic profile of metabolically labeled hypusine/deoxyhypusine obtained after incubation of the purified rat enzyme with unhydroxylated eIF-5A in the absence (open squares) and presence (closed squares) of mimetic III. […] Peptides of appropriate structure or peptidomimetics like mimetic III can serve as "carriers" for a reactive moiety termed "warhead" that, by virture of its attachment to the carrier, becomes precisely oriented to interact optimally with the active site metal ion of DOHH. In the case of mimetic III, such a warhead moiety can be attached at the site indicated by the asterisk in FIG. 4A.
as §1
DOHH Assay. Enzyme activity was purified and determined, as described by Abbruzzese et al., J Biol Chem 261:3085-9 (1986), which is hereby incorporated by reference. Briefly, the enzyme is offered as labeled deoxyhypusine-containing eIF-5A precursor, and, following standard incubation conditions, the conversion into hypusine residues is measured by chromatographic amino acid separation of the hydrolyzed proteins. […] Biophys. Acta, 1221, 115-124 (1994), which is hereby incorporated by reference]. […]

| Compound | Deoxyhypusyl hydroxylase ID50 (cellular) [1] | deoxyhypusine-to-hypusine conversion in presence of compound [2] | deoxyhypusine-to-hypusine conversion in presence of compound ([2]; listed as mimetic of Formula III) |
| --- | --- | --- | --- |
| CCc1c(O)c(=O)ccn1CC [HK-2] | 50 |  |  |
| COCCn1ccc(=O)c(O)c1C [HK-15] | 60 |  |  |
| C=CCn1ccc(=O)c(O)c1C [HK-16] | 50 |  |  |
| CCn1ccc(=O)c(O)c1C [HK-26] | 58 |  |  |
| CCCn1ccc(=O)c(O)c1C [HK-27] | 50 |  |  |
| NC(CO)C1CCC(=O)NC(CO)C(=O)N(C(Cc2ccccc2)C(=O)O)NC1=O (stereo not shown) [mimetic III] |  | clearly reduced | the deoxyhypusine-to-hypusine conversion was suppressed |
